Counter-ions that a name gives are not always drawn.
Tests used:
Assay type in all cases: biochemical
[1] = biological target: T1, recombinant human VAP-1 (Homo sapiens, UniProt Q16853); assay: Activity on recombinant human VAP-1, HRP-coupled Amplex Red hydrogen peroxide assay; settings: substrate 1 mM benzylamine; compound incubated with enzyme at 37° C. for 30 minutes; pH 7.4; read-out: Inhibitory Activity (IC50, nM) human VAP-1
T1 construct: purchased R&D systems
T1 sequence (Q16853 1-763): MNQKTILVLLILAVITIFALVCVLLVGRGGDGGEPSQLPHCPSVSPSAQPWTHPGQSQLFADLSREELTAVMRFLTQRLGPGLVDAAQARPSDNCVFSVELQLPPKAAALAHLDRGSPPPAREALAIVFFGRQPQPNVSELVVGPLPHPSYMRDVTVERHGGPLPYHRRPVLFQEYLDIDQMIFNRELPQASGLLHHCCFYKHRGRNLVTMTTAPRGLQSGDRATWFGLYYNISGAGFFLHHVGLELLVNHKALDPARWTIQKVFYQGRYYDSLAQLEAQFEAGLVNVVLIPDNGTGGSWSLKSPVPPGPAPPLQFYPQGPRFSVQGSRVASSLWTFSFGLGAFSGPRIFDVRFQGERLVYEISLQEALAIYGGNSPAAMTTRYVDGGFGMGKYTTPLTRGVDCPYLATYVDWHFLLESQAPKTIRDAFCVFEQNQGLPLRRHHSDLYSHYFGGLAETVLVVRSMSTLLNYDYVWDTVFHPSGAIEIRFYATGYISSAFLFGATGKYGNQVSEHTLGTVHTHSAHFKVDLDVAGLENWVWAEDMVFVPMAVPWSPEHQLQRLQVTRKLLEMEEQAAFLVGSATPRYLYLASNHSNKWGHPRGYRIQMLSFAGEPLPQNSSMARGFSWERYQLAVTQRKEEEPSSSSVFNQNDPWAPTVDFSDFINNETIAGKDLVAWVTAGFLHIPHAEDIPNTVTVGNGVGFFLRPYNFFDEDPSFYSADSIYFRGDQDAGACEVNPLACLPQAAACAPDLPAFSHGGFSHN
Experimental: (§1) The compounds according to the present technology were evaluated in terms of activity on recombinant human VAP-1 (R&D systems) by measuring the level of hydrogen peroxide in horseradish peroxidase (HRP)-coupled reaction using Amplex Red Hydrogen Peroxide Assay Kit (Molecular Probes, Invitrogen, USA). The experiment was carried out at room temperature using benzylamine as a substrate. In the HRP-coupled reaction, hydrogen peroxide oxidation of 10-acetyl-3,7-dihydroxyphenoxazine (Amplex Red reagent) produces resorufin, which is a highly fluorescent compound. Briefly, the test compound was dissolved in dimethyl sulfoxide (DMSO) at a concentration of 20 mM. The dose-response assessment was made by 1:3 serial dilution in DMSO, thereby creating an 8 point curve. The concentration of the upper part was controlled according to the efficacy of the compounds, followed by dilution with a reaction buffer solution to obtain a final DMSO concentration less than 1%. To each well of a 96 black well plate, human VAP-1 purified in 50 mM sodium phosphate buffer solution (pH7.4) was added. The test compounds dissolved in DMSO were incubated with the human VAP-1 enzymes at 37° C. for 30 minutes. After 30-minute incubation, each well is added with a reaction mixture containing 200 uM Amplex Red reagent prepared from 50 mM sodium phosphate buffer solution (pH 7.4), 1 mM benzylamine, and 1 U/mL HRP. Fluorescence intensity was measured at several time points during 1-2 hours using a microplate reader (Flexstation3, Molecular Devices) under the wavelength condition exciting at 544 nm and reading the emission at 590 nm. The inhibitory effect of the compounds was measured as a decrease (%) in the signal rate as compared to the control group without any inhibitor (only diluted DMSO). Data was fixed to a logistic model with four variables and IC50 value was calculated using GraphPad Prism program.

[2] = biological target: T2, recombinant human MAO-A (monoamine oxidase-A) (Homo sapiens, UniProt P21397); assay: Activity on recombinant human MAO-A, method similar to the VAP-1 assay; settings: substrate 0.5 mM tyramine; read-out: Inhibitory Activity (IC50, nM) MAO-A
T2 construct: purchased Sigma-Aldrich
T2 sequence (P21397 1-527): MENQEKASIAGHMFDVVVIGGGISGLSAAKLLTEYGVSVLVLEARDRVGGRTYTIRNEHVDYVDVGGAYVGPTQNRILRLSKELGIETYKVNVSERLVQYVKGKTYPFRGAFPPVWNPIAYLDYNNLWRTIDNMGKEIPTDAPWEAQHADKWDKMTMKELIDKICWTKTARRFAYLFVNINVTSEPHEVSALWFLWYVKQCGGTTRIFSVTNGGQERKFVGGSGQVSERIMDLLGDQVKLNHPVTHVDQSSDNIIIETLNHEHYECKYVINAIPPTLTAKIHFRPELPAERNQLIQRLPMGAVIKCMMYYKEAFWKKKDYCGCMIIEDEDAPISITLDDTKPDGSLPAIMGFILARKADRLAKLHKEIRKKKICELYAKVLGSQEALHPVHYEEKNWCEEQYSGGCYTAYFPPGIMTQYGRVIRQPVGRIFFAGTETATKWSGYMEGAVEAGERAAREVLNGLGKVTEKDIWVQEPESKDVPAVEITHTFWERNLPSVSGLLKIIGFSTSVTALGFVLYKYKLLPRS
Experimental: as §1
(§2) In addition, the compounds according to the present technology were evaluated in terms of activity on a recombinant human MAO-A (monoamine oxidase-A, Sigma-Aldrich) and a recombinant human MAO-B (monoamine oxidase-B, Sigma-Aldrich) by using as substrates, 0.5 mM tyramine and 1 mM benzylamine, respectively, with a method similar to the activity evaluation method for recombinant human VAP-1. The compounds according to the present technology were also evaluated in terms of activity on a recombinant human DAO (diamine oxidase, R&D systems) by using as a substrate 1 mM putrescine with a method similar to the activity evaluation method for recombinant human VAP-1.

[3] = biological target: T3, recombinant human DAO (diamine oxidase) (Homo sapiens, UniProt P19801); assay: Activity on recombinant human DAO, method similar to the VAP-1 assay; settings: substrate 1 mM putrescine; read-out: Inhibitory Activity (IC50, nM) DAO
T3 construct: purchased R&D systems
T3 sequence (P19801 20-751): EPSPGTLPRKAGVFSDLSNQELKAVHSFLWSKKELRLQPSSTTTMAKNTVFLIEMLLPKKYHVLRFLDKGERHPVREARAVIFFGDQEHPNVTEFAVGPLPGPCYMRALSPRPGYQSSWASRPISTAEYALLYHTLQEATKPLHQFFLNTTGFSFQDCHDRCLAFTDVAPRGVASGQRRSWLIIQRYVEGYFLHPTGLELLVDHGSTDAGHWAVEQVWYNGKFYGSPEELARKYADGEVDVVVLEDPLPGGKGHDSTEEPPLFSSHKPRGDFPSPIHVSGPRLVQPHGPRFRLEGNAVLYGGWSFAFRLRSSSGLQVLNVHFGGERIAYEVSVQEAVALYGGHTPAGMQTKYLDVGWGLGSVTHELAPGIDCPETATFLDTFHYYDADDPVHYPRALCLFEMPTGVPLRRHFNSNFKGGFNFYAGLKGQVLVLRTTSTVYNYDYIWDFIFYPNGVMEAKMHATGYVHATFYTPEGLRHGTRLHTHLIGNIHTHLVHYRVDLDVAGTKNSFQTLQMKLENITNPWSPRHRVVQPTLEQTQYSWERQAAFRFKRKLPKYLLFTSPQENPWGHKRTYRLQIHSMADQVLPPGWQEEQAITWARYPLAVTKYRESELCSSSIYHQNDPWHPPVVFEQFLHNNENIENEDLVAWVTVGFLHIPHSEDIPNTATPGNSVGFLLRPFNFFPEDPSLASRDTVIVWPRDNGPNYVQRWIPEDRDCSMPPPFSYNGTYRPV
Experimental: as §1, §2

SMILES	IC50 [1]	IC50 [2]	IC50 [3]
NC/C(=C/F)Cn1ncn(Cc2ccc(-c3ccc(C(=O)N4CCOCC4)cc3)s2)c1=O [Example 26, 2-[(2Z)-2-(aminomethyl)-3-fluoroprop-2-en-1-yl]-4-(5-[4-(morpholin-4-ylcarbonyl)phenyl]thiophen-2-ylmethyl)-2,4-dihydro-3H-1,2,4-triazol-3-one hydrochloride]	1.4 nM	–	–
NC/C(=C/F)Cn1ncn(Cc2ccc(-c3ccc(-c4nnc[nH]4)cc3)s2)c1=O [Example 30, 2-[(2Z)-2-(aminomethyl)-3-fluoroprop-2-en-1-yl]-4-(5-[4-(4H-1,2,4-triazol-3-yl)phenyl]thiophen-2-ylmethyl)-2,4-dihydro-3H-1,2,4-triazol-3-one]	0.97 nM	–	–
NC/C(=C/F)Cn1ncn(Cc2ccc(-c3cccc(-c4nnc[nH]4)c3)s2)c1=O [Example 32, 2-[(2Z)-2-(aminomethyl)-3-fluoroprop-2-en-1-yl]-4-(5-[3-(4H-1,2,4-triazol-3-yl)phenyl]thiophen-2-ylmethyl)-2,4-dihydro-3H-1,2,4-triazol-3-one]	1.2 nM	–	–
CC(=O)Nc1cc(-c2ccc(Cn3cnn(C/C(=C\F)CN)c3=O)s2)ccn1 [Example 41, N-4-[5-(1-[(2Z)-2-(aminomethyl)-3-fluoroprop-2-en-1-yl]-5-oxo-1,5-dihydro-4H-1,2,4-triazol-4-ylmethyl)thiophen-2-yl]pyridin-2-ylacetamide hydrochloride]	1.3 nM	–	–
COc1ccc(-c2ccc(Cn3cnn(C/C(=C\F)CN)c3=O)s2)cn1 [Example 44, 2-[(2Z)-2-(aminomethyl)-3-fluoroprop-2-en-1-yl]-4-[5-(6-methoxypyridin-3-yl)thiophen-2-yl]methyl-2,4-dihydro-3H-1,2,4-triazol-3-one hydrochloride]	1.9 nM	–	–
NC/C(=C/F)Cn1ncn(Cc2ccc(-c3ccc(C(F)(F)F)nc3)s2)c1=O [Example 48, 2-[(2Z)-2-(aminomethyl)-3-fluoroprop-2-en-1-yl]-4-(5-[6-(trifluoromethyl)pyridin-3-yl]thiophen-2-ylmethyl)-2,4-dihydro-3H-1,2,4-triazol-3-one hydrochloride]	1.6 nM	–	–
NC/C(=C/F)Cn1ncn(Cc2ccc(-c3ccc(N4CCOCC4)nc3)s2)c1=O [Example 51, 2-[(2Z)-2-(aminomethyl)-3-fluoroprop-2-en-1-yl]-4-(5-[6-(morpholin-4-yl)pyridin-3-yl]thiophen-2-ylmethyl)-2,4-dihydro-3H-1,2,4-triazol-3-one hydrochloride]	0.75 nM	–	–
COCCNc1ncc(-c2ccc(Cn3cnn(C/C(=C/F)CN)c3=O)s2)cn1 [Example 53, 2-[(2E)-2-(aminomethyl)-3-fluoroprop-2-en-1-yl]-4-[(5-2-[(2-methoxyethyl)amino]pyrimidin-5-ylthiophen-2-yl)methyl]-2,4-dihydro-3H-1,2,4-triazol-3-one hydrochloride]	2.6 nM	> 100000 nM	380 nM

Other lines, results leading:

IC50 [1]	IC50 [2]	IC50 [3]	SMILES
1.7 nM	> 10000 nM	110 nM	N#Cc1ncc(-c2ccc(Cn3cnn(C/C(=C/F)CN)c3=O)s2)cn1 [Example 54, 5-[5-(1-[(2E)-2-(aminomethyl)-3-fluoroprop-2-en-1-yl]-5-oxo-1,5-dihydro-4H-1,2,4-triazol-4-ylmethyl)thiophen-2-yl]pyrimidine-2-carbonitrile hydrochloride]
2.7 nM	–	–	Cc1cc(-c2ccc(Cn3cnn(C/C(=C\F)CN)c3=O)s2)cc2c1NC(=O)CC2 [Example 76, 6-[5-(1-[(2Z)-2-(aminomethyl)-3-fluoroprop-2-en-1-yl]-5-oxo-1,5-dihydro-4H-1,2,4-triazol-4-ylmethyl)thiophen-2-yl]-8-methyl-3,4-dihydroquinolin-2(1H)-one hydrochloride]
1.9 nM	–	–	NC/C(=C/F)Cn1ncn(Cc2ccc(-c3ccc4c(c3)NC(=O)CO4)s2)c1=O [Example 89, 6-[5-(1-[(2Z)-2-(aminomethyl)-3-fluoroprop-2-en-1-yl]-5-oxo-1,5-dihydro-4H-1,2,4-triazol-4-ylmethyl)thiophen-2-yl]-2H-1,4-benzoxazin-3(4H)-one hydrochloride]
1.2 nM	–	–	NC/C(=C/F)Cn1ncn(Cc2ccc(-c3ccc4c(c3)NC(=O)OC4)s2)c1=O [Example 99, 7-[5-(1-[(2Z)-2-(aminomethyl)-3-fluoroprop-2-en-1-yl]-5-oxo-1,5-dihydro-4H-1,2,4-triazol-4-ylmethyl)thiophen-2-yl]-1,4-dihydro-2H-3,1-benzoxazin-2-one hydrochloride]
1 nM	> 100000 nM	680 nM	NC/C(=C\F)Cn1ncn(Cc2ccc(/C=C/c3cnc4[nH]c(=O)oc4c3)s2)c1=O [Example 122, 6-[(E)-2-[5-[[1-[(E)-2-(aminomethyl)-3-fluoro-allyl]-5-oxo-1,2,4-triazol-4-yl]methyl]-2-thienyl]vinyl]-3H-oxazolo[4,5-b]pyridin-2-one hydrochloride]
31 nM	–	–	NC/C(=C/F)Cn1ncn(CCc2cccs2)c1=O [Example 140, 2-[(2Z)-2-(aminomethyl)-3-fluoroprop-2-en-1-yl]-4-[2-(thiophen-2-yl)ethyl]-2,4-dihydro-3H-1,2,4-triazol-3-one]
